Data from ChEMBL document CHEMBL6120946, “From Hit to Lead: Discovery of First-In-Class Furanone Glycoside D228 Derived from Chimonanthus salicifolius for the Treatment of Inflammatory Bowel Disease” (J Med Chem, 2024).
The source made the active and inactive calls. The rule behind the calls is not given here.

Legend:
Mus musculus [1] = test: Antiinflammatory activity in DSS-induced male C57BL/6 mouse model of inflammatory bowel disease assessed as increase in colon length at 20 mg/kg/day, ip measured after 14 days relative to control; format: functional; conditions: time 14 day
Mus musculus [2] = test: Antiinflammatory activity in DSS-induced male C57BL/6 mouse model of inflammatory bowel disease assessed as recovery from body weight loss at 40 mg/kg/day, po measured after 7 days relative to control; format: functional; conditions: time 7 day
[3] = AUC infinity in male C57 mouse at 5 mg/kg, po measured upto 24 hrs; format: ADME, organism-based; conditions: in vivo
[4] = Clearance in male C57 mouse at 1 mg/kg, iv measured upto 24 hrs; format: ADME, organism-based; conditions: in vivo
[5] = AUC last in male C57 mouse at 1 mg/kg, iv measured upto 24 hrs; format: ADME, organism-based; conditions: in vivo
Mus musculus [6] = species: Mus musculus; test: Antiinflammatory activity in DSS-induced male C57BL/6 mouse model of inflammatory bowel disease assessed as reduction in IRF5 level; format: functional, organism-based
[7] = Immunosuppressive activity in mouse T-lymphocyte assessed as reduction in concanavalin A-induced cell proliferation incubated for 48 hrs; format: functional, cell-based
[8] = AUC last in male C57 mouse at 5 mg/kg, po measured upto 24 hrs; format: ADME, organism-based; conditions: in vivo
[9] = Cytotoxicity against mouse Splenocyte by MTT assay; format: toxicity, cell-based; conditions: splenocytes
Mus musculus [10] = test: Antiinflammatory activity in DSS-induced male C57BL/6 mouse model assessed as inhibition of IL-22 level in colon at 50 to 200 microM/Kg; format: functional, organism-based; conditions: dose 50-200 µM/Kg
[11] = Half life in male C57 mouse at 1 mg/kg, iv measured upto 24 hrs; format: ADME, organism-based; conditions: in vivo
[12] = Half life in male C57 mouse at 5 mg/kg, po measured upto 24 hrs; format: ADME, organism-based; conditions: in vivo
[13] = Clearance in male C57 mouse at 5 mg/kg, po measured upto 24 hrs; format: ADME, organism-based; conditions: in vivo
[14] = Apparent volume of distribution in male C57 mouse at 5 mg/kg, po measured upto 24 hrs; format: ADME, organism-based; conditions: in vivo
[15] = Cmax in male C57 mouse at 5 mg/kg, po measured upto 24 hrs; format: ADME, organism-based; conditions: in vivo
[16] = Apparent volume of distribution in male C57 mouse at 1 mg/kg, iv measured upto 24 hrs; format: ADME, organism-based; conditions: in vivo, read-out: Vz
[17] = AUC infinity in male C57 mouse at 1 mg/kg, iv measured upto 24 hrs; format: ADME, organism-based; conditions: in vivo
[18] = Selectivity ratio of CC50 for cytotoxicity against mouse Splenocyte to IC50 for immunosuppressive activity in mouse T-lymphocyte; format: toxicity; conditions: splenocytes (CC50) and T-lymphocytes (IC50)
Mus musculus [19] = test: Antiinflammatory activity in DSS-induced male C57BL/6 mouse model of inflammatory bowel disease assessed as downregulation of MyD88 expression at 50 to 200 microM/Kg by Western blot analysis; format: functional, organism-based; conditions: dose 50-200 µM/Kg
Mus musculus [20] = species: Mus musculus; test: Antiinflammatory activity in DSS-induced male C57BL/6 mouse model of inflammatory bowel disease assessed as reduction in JNK level; format: functional, organism-based
[21] = MRT last in male C57 mouse at 1 mg/kg, iv measured upto 24 hrs; format: ADME, organism-based; conditions: in vivo
Mus musculus [22] = test: Antiinflammatory activity in DSS-induced male C57BL/6 mouse model of inflammatory bowel disease assessed as recovery in colon length at 40 mg/kg/day, po measured after 7 days relative to control; format: functional; conditions: time 7 day
[23] = Oral bioavailability in male C57 mouse at 5 mg/kg measured upto 24 hrs; format: ADME, organism-based; conditions: in vivo
Mus musculus [24] = test: Antiinflammatory activity in DSS-induced male C57BL/6 mouse model of inflammatory bowel disease assessed as recovery from body weight loss at 40 mg/kg/day, po measured after 7 days; format: functional, organism-based; conditions: time 7.0 day
Mus musculus [25] = test: Antiinflammatory activity in DSS-induced male C57BL/6 mouse model of inflammatory bowel disease assessed as increase in colon length at 15 mg/kg/day, po via gavage measured upto 14 days relative to control; format: functional; conditions: time <= 14 day
Mus musculus [26] = test: Antiinflammatory activity in DSS-induced male C57BL/6 mouse model of inflammatory bowel disease assessed as increase in colon length at 10 mg/kg/day, ip measured after 14 days relative to control; format: functional; conditions: time 14 day
[27] = Tmax in male C57 mouse at 5 mg/kg, po measured upto 24 hrs; format: ADME, organism-based; conditions: in vivo
[28] = MRT last in male C57 mouse at 5 mg/kg, po measured upto 24 hrs; format: ADME, organism-based; conditions: in vivo
Mus musculus [29] = test: Antiinflammatory activity in DSS-induced male C57BL/6 mouse model of inflammatory bowel disease assessed as increase in colon length at 40 mg/kg/day, ip measured after 14 days relative to control; format: functional; conditions: time 14 day
B-cell line = test: Immunosuppressive activity in mouse B-lymphocyte assessed as reduction in LPS-induced cell proliferation incubated for 48 hrs; format: functional, cell-based
[30] = Selectivity ratio of CC50 for cytotoxicity against mouse Splenocyte to IC50 for immunosuppressive activity in mouse B-lymphocyte; format: toxicity; conditions: splenocytes (CC50) and B-lymphocytes (IC50)
Mus musculus [31] = species: Mus musculus; test: Antiinflammatory activity in DSS-induced male C57BL/6 mouse model of inflammatory bowel disease assessed as reduction in p38 level; format: functional, organism-based
[32] = Acute toxicity in male Kunming mouse assessed as effect on body weight loss 5 g/Kg, po measured after 5 weeks; format: organism-based; conditions: in vivo, 5000 mg/kg, 840 h
Mus musculus [33] = test: Antiinflammatory activity in DSS-induced male C57BL/6 mouse model assessed as inhibition of IL-6 level in colon at 50 to 100 microM/Kg; format: functional, organism-based; conditions: dose 50-100 µM/Kg
[34] = Acute toxicity in male Kunming mouse assessed as effect on lung 5 g/Kg, po measured after 5 weeks; format: organism-based; conditions: in vivo, 5000 mg/kg, 840 h
[35] = Toxicity in male Kunming mouse assessed as effect on […] level in serum at 100 to 500 mg/kg/day, po measured after 5 weeks; format: organism-based; conditions: in vivo, 840 h, dose 100-500 mg/kg/day
[36] = Toxicity in female Kunming mouse assessed as lethal dose administered as po measured after 5 weeks; format: organism-based; conditions: in vivo
[37] = Toxicity in female Kunming mouse assessed as effect on liver to body weight ratio at 100 to 500 mg/kg/day, po measured after 5 weeks; format: organism-based; conditions: in vivo, 840 h, dose 100-500 mg/kg/day
[38] = Toxicity in female Kunming mouse assessed as effect on CK level in serum at 100 to 500 mg/kg/day, po measured after 5 weeks; format: organism-based; conditions: in vivo, 840 h, dose 100-500 mg/kg/day
[39] = Toxicity in male Kunming mouse assessed as effect on liver at 100 to 500 mg/kg/day, po measured after 5 weeks by H and E staining based analysis; format: organism-based; conditions: in vivo, 840 h, dose 100-500 mg/kg/day
[40] = Toxicity in male Kunming mouse assessed as effect on spleen to body weight ratio at 100 to 500 mg/kg/day, po measured after 5 weeks; format: organism-based; conditions: in vivo, 840 h, dose 100-500 mg/kg/day
Mus musculus [41] = test: Antiinflammatory activity in DSS-induced male C57BL/6 mouse model assessed as inhibition of IL-22 level in colon at 50 to 100 microM/Kg; format: functional, organism-based; conditions: dose 50-100 µM/Kg
[42] = Toxicity in male Kunming mouse assessed as effect on body weight loss at 100 to 500 mg/kg/day, po measured after 5 weeks; format: organism-based; conditions: in vivo, 840 h, dose 100-500 mg/kg/day
[43] = Acute toxicity in female Kunming mouse assessed as effect on liver 5 g/Kg, po measured after 5 weeks; format: organism-based; conditions: in vivo, 5000 mg/kg, 840 h
[44] = Toxicity in female Kunming mouse assessed as effect on body weight loss at 100 to 500 mg/kg/day, po measured after 5 weeks; format: organism-based; conditions: in vivo, 840 h, dose 100-500 mg/kg/day

Compound | Activity (Mus musculus [2]) [%] | AUC(0-inf) [3] [ng·h/mL] | clearance [4] [mL/min/kg] | AUC(0-t) at 24 h [5] [ng·h/mL] | IC50 [7] [µM] | AUC(0-t) at 24 h [8] [ng·h/mL] | CC50 [9] [µM] | half-life [11] [min] | Vz [14] [L/kg] | Cmax [15] [ng/mL] | Vd [16] [L/kg] | AUC(0-inf) [17] [ng·h/mL] | selectivity ratio [18] | MRT last at 24 h [21] [min] | Activity (Mus musculus [22]) [%] | bioavailability [23] [%] | Activity (Mus musculus [24]) | Tmax [27] [min] | MRT last at 24 h [28] [h] | IC50 (B-cell line) [µM] | other results
CC(C)=C1OC(C)=C(O[C@@H]2O[C@H](CO)[C@@H](O)[C@H](O)[C@H]2O)C1=O | 45.6 | 180 | 28.5 | 592 | 308 | 177 | 149 | 27 | 29.6 | 284 | 1.09 | 594 | 0.63 | 19.8 | 50.5 | 6 | Active | 15 | 4.23 | 85.8 | Activity (Mus musculus [1]): 47.4%; Activity (Mus musculus [6]): Active; Activity (Mus musculus [10]): Active; t1/2 ([12]; mouse, po, 5 mg/kg, 24 h): 5.54 h; CL ([13]; mouse, po, 5 mg/kg, 24 h): 28.54 L/h/kg; Activity (Mus musculus [19]): Active; Activity (Mus musculus [20]): Active; Activity (Mus musculus [25]): 79.1%; Activity (Mus musculus [26]): 20.4%; Activity (Mus musculus [29]): 69.4%; selectivity ratio [30]: 1.9; Activity (Mus musculus [31]): Active
CC(=O)OC[C@H]1O[C@@H](OC2=C(C)OC(=C(C)C)C2=O)[C@H](OC(C)=O)[C@@H](OC(C)=O)[C@@H]1OC(C)=O | 27 | 93.6 | 397 | 32.3 | 42.9 | 58.3 | 60 | 16.2 | 137.3 | 48.4 | 9.25 | 44 | 1.44 | 10.2 | 33.3 | 36.1 | Active | 19.8 | 1.06 | 3.15 | Activity [32]: Non-toxic; Activity (Mus musculus [33]): Active; Activity [34]: Non-toxic; Activity [35]: Non-toxic; LD50 at 840 h [36]: > 500 mg/kg; half-life ([12]; male, C57, mouse): 115 min; CL/F ([13]; male, C57, mouse): 915 mL/min/kg; Activity [37]: Non-toxic; Activity [38]: Non-toxic; Activity [39]: Non-toxic; Activity [40]: Non-toxic; Activity (Mus musculus [41]): Active; Activity [42]: Non-toxic; Activity [43]: Non-toxic; Activity [44]: Non-toxic; selectivity ratio [30]: 22
